Assays:
SD rats = assay: SD rat carrageenan acute inflammation model; assay type: in vivo; settings: SD rat carrageenan
Protocol: Using an electronic caliper for accuracy, the thickness of the rat's footpad was measured. Rats were then restrained, and 100 μl of 1% carrageenan was subcutaneously injected into the right hind footpad to induce inflammation, thereby establishing an acute inflammation model using carrageenan. Each compound was administered in advance according to the respective dosing time points. The swelling of the rat's foot was measured at various time points: before modeling (0 h) and after modeling (2, 4, 7 h). A comparison was made between footpad swelling before and after modeling. […] The results of the carrageenan-induced acute inflammation model experiment are depicted in FIG. 1.

SSTR4 = molecular target: T1, SSTR4 (Homo sapiens, UniProt P31391); assay: FLIPR assay for agonists, HEK293/Gα15/SSTR4 cells; assay type: cell-based; settings: read-out: SSTR4 Agonist Activity in FLIPR Assay EC50
T1 construct: host or cells: HEK293/Gα15/SSTR4
T1 sequence (P31391 whole entry): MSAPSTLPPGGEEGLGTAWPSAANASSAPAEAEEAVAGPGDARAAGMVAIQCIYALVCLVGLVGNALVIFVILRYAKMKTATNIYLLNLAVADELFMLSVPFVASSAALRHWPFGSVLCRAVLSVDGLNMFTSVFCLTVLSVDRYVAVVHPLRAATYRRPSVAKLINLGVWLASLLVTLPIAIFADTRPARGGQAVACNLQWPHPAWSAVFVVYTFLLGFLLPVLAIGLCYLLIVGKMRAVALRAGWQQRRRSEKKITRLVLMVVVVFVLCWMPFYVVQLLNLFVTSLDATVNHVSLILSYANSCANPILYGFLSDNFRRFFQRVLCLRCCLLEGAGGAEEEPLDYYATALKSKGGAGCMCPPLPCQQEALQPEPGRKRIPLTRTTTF
Protocol: The study was carried out at HD Biosciences (Shanghai, China) according to the following steps.
Step 1: Test compounds were diluted to a 400×stock solution in DMSO in a 384-well plate.
Step 2: 1 μL of the compound solution was transferred from Step 1 to 79 μL of assay buffer, creating a 5×working solution in the 384-well plate using the Bravo method.
Step 3: HEK293/Gα15/SSTR1-5 cells were cultured in DMEM medium (10% FBS).
Step 4: When cells reached 80% confluence, the cells were separated using 0.25% trypsin-EDTA.
Step 5: The cell density was measured and the cells diluted to 1×10^6/mL using DMEM (10% FBS).
Step 6: 30 μL of cells were dispensed into each well of a Matrigel-coated 384-well plate (Corning 3764#) using a multi-channel pipette (30,000 cells per well) and cultured for 20-24 hours at 37° C. and 5% CO2.
Step 7: 10 μL of dye was added to each well in the cell plate prepared in Step 6.
Step 8: The dye and cells were incubated in the dark at 37° C. and 5% CO2 for 1 hour.
Step 9: After 1 hour, the FLIPR program was loaded, the pipette tips placed cell plate and compound plate (from Step 2) into the machine, and the run button was pressed. The program added 10 μL to 40 μL to the cell plate. FLIPR was used to read the plate at room temperature according to the specified settings and the data was saved.

KM mice = assay: Acetic acid induced writhing test; assay type: in vivo; settings: 30 mg/kg s.c.; for No. of writhing's: 0.6% acetic acid 15 min after dosing, 30-minute period; for Percentage of Inhibition / Significant compared to the model group: writhing
Protocol: Fifteen minutes after administration, a 0.6% acetic acid solution (5 mL/kg) was injected into the abdominal cavity. The mice were then placed in an observation box, and the number of writhing episodes was recorded within a 30-minute period. The assessment of pain intensity was based on the observation of the mice's writhing behavior.

In vivo PK study = settings: po, 3 mg/kg p.o.

SMILES	Changes in Foot Swelling Rate (Mean ± SEM) (SD rats; 0 h (before modeling))	Foot Swelling Degrees (Mean ± SEM) (SD rats; 0 h (before modeling))	Changes in Foot Swelling Rate (Mean ± SEM) (SD rats; 2 h after modeling)	Foot Swelling Degrees (Mean ± SEM) (SD rats; 2 h after modeling)	Changes in Foot Swelling Rate (Mean ± SEM) (SD rats; 4 h after modeling)	Foot Swelling Degrees (Mean ± SEM) (SD rats; 4 h after modeling)	Changes in Foot Swelling Rate (Mean ± SEM) (SD rats; 7 h after modeling)	Foot Swelling Degrees (Mean ± SEM) (SD rats; 7 h after modeling)	No. of writhing's (KM mice)	Percentage of Inhibition (KM mice)	Significant compared to the model group (KM mice)	also measured
CC(=O)Oc1ccccc1C(=O)O [Aspirin]	0%	4.08 ± 0.10 mm	33.44 ± 4.56%	5.42 ± 0.11 mm	24.42 ± 6.86%	5.05 ± 0.21 mm	19.72 ± 3.24%	4.87 ± 0.07 mm				
CC(C)(NC(=O)[C@@H]1[C@@H]2CNC[C@H]1C2)c1ncc2c(Br)cccn12 [Compound 3, (1R,5S,6s)-N-(2-(8-bromoimidazo[1,5-a]pyridin-3-yl)propan-2-yl)-3-azabicyclo[3.1.1]heptane-6-carboxamide]												EC50 (SSTR4): > 1 µM
COc1ccc(-c2cccn3c(C(C)(C)NC(=O)[C@H]4[C@@H]5CNC[C@H]4C5)ncc23)cc1 [Compound 12, (1R,5S,6r)-N-(2-(8-(4-methoxyphenyl)imidazo[1,5-a]pyridin-3-yl)propan-2-yl)-3-azabicyclo[3.1.1]heptane-6-carboxamide]									10	54.16%	Yes	
CC(C)(NC(=O)[C@@H]1[C@@H]2C[C@H]1CN(C(=N)N)C2)c1ncc2c(Cl)cccn12 [Compound 21, (1R,5S,6r)-3-carbamimidoyl-N-(2-(8-chloroimidazo[1,5-a]pyridin-3-yl)propan-2-yl)-3-azabicyclo[3.1.1]heptane-6-carboxamide]									9	71%	Yes	
CC(C)(NC(=O)[C@@H]1[C@@H]2C[C@H]1CN(C(=N)N)C2)c1nc(C2CC2)c2ccccn12 [Compound 22, (1R,5S,6r)-3-carbamimidoyl-N-(2-(1-cyclopropylimidazo[1,5-a]pyridin-3-yl)propan-2-yl)-3-azabicyclo[3.1.1]heptane-6-carboxamide]									7 ± 2	82.45 ± 5.13%	Yes	AUC(0-t) (In vivo PK study): 1.3 ng·h/mL; Cmax (In vivo PK study): 5.56 ng/mL; MRT inf (In vivo PK study): 11.4 min; Tmax (In vivo PK study): 11.4 min
CC(C)C[C@H](CN)CC(=O)O [Pregabalin]	0%	4.06 ± 0.07 mm	41.54 ± 1.45%	5.74 ± 0.09 mm	35.68 ± 2.85%	5.49 ± 0.09 mm	37.64 ± 2.63%	5.58 ± 0.13 mm				
